In patent US20230048132A1, “CYCLIN-DEPENDENT KINASE INHIBITORS” (SPV THERAPEUTICS INC., priority 2018, published 2023):

What was measured:
Assay in all cases: 2D cell proliferation assay (CellTiter-Blue)
Assay type in all cases: cell-based
[1] = system: MAXFTN MDA-MB-231 (ER−); details: Homo sapiens, 72 h, three days of treatment, read-out: abs. IC50
Method in brief: (§1)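 Exponential-phase cells plated, 24 h recovery; compound added at five concentrations in full-log steps (top 100 μM), duplicate; incubated 3 days, 37° C; CellTiter-Blue added, fluorescence measured; signal expressed as T/C% of untreated control and fitted (4-parameter) for IC50.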

[2] = system: PRXF VCap; details: Homo sapiens, 72 h, three days of treatment, read-out: abs. IC50
Method in brief: as §1

[3] = system: CNXF U-87 MG; details: Homo sapiens, 72 h, three days of treatment, read-out: abs. IC50
Method in brief: as §1

[4] = system: LXFL NCl-H460; details: 72 h, three days of treatment, read-out: abs. IC50
Method in brief: as §1

[5] = system: MAXFLB MCF7 (ER+); details: Homo sapiens, 72 h, three days of treatment, read-out: abs. IC50
Method in brief: (§2)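 Cells at 4,000-60,000/well recovered 24 h, then five full-log concentrations up to 100 μM in duplicate for three days at 37 °C. CellTiter-Blue fluorescence (ex 570/em 600 nm) after up to 4 h; T/C% vs untreated controls, relative IC50 and absolute IC50/IC70 by 4-parameter fit.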

[6] = system: MAXFHER BT-474; details: Homo sapiens, 72 h, three days of treatment, read-out: abs. IC50
Method in brief: as §1

[7] = system: MAXFTN MDA-MB-453; details: Homo sapiens, 72 h, three days of treatment, read-out: abs. IC50
Method in brief: as §1

[8] = system: PAXF BxPC-3; details: Homo sapiens, 72 h, three days of treatment, read-out: abs. IC50
Method in brief: as §1

[9] = system: MAXFTN MDA-MB-468 (ER−); details: Homo sapiens, 72 h, three days of treatment, read-out: abs. IC50
Method in brief: as §1

[10] = system: MEXF WM-266-4; details: Homo sapiens, 72 h, three days of treatment, read-out: abs. IC50
Method in brief: as §1

[11] = system: UXF MFE-319; details: 72 h, three days of treatment, read-out: abs. IC50
Method in brief: as §1

[12] = system: MEXF A-375; details: Homo sapiens, 72 h, three days of treatment, read-out: abs. IC50
Method in brief: as §1

[13] = system: MAXFLB T47D (ER+); details: Homo sapiens, 72 h, three days of treatment, read-out: abs. IC50
Method in brief: as §1

[14] = system: LXFE Calu-1; details: Homo sapiens, 72 h, three days of treatment, read-out: abs. IC50
Method in brief: as §1

[15] = system: MEXF M14; details: 72 h, three days of treatment, read-out: abs. IC50
Method in brief: as §1

[16] = system: LIXFH HEP-3B; details: Homo sapiens, Hep3B, 72 h, three days of treatment, read-out: abs. IC50
Method in brief: as §1

[17] = system: MAXFHER SK-BR-3; details: Homo sapiens, 72 h, three days of treatment, read-out: abs. IC50
Method in brief: as §1

[18] = system: PRXF DU-145; details: Homo sapiens, 72 h, three days of treatment, read-out: abs. IC50
Method in brief: as §1

[19] = system: LIXFH Hep G2; details: Homo sapiens, HepG2, 72 h, three days of treatment, read-out: abs. IC50
Method in brief: as §1

[20] = system: LXFA NCl-H1975; details: 72 h, three days of treatment, read-out: abs. IC50
Method in brief: as §1

[21] = system: LEXFCM K-562; details: Homo sapiens, K562, 72 h, three days of treatment, read-out: abs. IC50
Method in brief: as §1

[22] = system: CXF HT-29; details: Homo sapiens, 72 h, three days of treatment, read-out: abs. IC50
Method in brief: as §1

[23] = system: LEXFAM MV4-11; details: Homo sapiens, 72 h, three days of treatment, read-out: abs. IC50
Method in brief: as §2

[24] = system: MEXF MDA-MB-435; details: Homo sapiens, 72 h, three days of treatment, read-out: abs. IC50
Method in brief: as §1

[25] = system: PRXF 22Rv1; details: Homo sapiens, 72 h, three days of treatment, read-out: abs. IC50
Method in brief: as §1

[26] = system: MAXFTN BT-549; details: Homo sapiens, 72 h, three days of treatment, read-out: abs. IC50
Method in brief: as §1

[27] = system: MAXFTN ZR-75-1 (ER+); details: Homo sapiens, 72 h, three days of treatment, read-out: abs. IC50
Method in brief: as §2

[28] = system: UXF EFE-184; details: Homo sapiens, 72 h, three days of treatment, read-out: abs. IC50
Method in brief: as §1

[29] = system: BXF 5637; details: 72 h, three days of treatment, read-out: abs. IC50
Method in brief: as §1

[30] = system: LEXFCL MEC-1; details: Homo sapiens, MEC1, 72 h, three days of treatment, read-out: abs. IC50
Method in brief: as §1

[31] = system: CXF Caco-2; details: Homo sapiens, 72 h, three days of treatment, read-out: abs. IC50
Method in brief: as §1

[32] = system: LXFL NCl-H1299; details: 72 h, three days of treatment, read-out: abs. IC50
Method in brief: as §2

Row | IC50 [1] | IC50 [2] | IC50 [3] | IC50 [4] | IC50 [5] | IC50 [6] | IC50 [7] | IC50 [8] | IC50 [9] | IC50 [12] | IC50 [13] | IC50 [14] | IC50 [16] | IC50 [17] | IC50 [18] | IC50 [20] | SMILES | IC50 [10] | IC50 [11] | IC50 [15] | IC50 [19] | other results
1 | 0.703 µM | 1.26 µM | 10.8 µM | 2.13 µM | 1.04 µM | 5.55 µM | 0.327 µM | 0.756 µM | 0.925 µM | 0.263 µM | 1.63 µM | 5.96 µM | 3.67 µM | 1.02 µM | 0.544 µM | 0.356 µM | O=C1NCC[C@@]12Cc1cnc(Nc3ccc(N4CCNCC4)cc3F)nc1N(C1CCCC1)C2=O [Example D146, (S)-8-cyclopentyl-2-((2-fluoro-4-(piperazin-1-yl)phenyl)amino)-5,8-dihydro-7H-spiro[pyrido[2,3-d]pyrimidine-6,3′-pyrrolidine]-2′,7-dione] | 6.22 µM | 1.14 µM | 1.58 µM | 0.341 µM | IC50 [21]: 4.94 µM; IC50 [22]: 8.98 µM; IC50 [23]: ≤ 0.01 µM; IC50 [24]: 0.875 µM; IC50 [25]: 0.138 µM; IC50 [26]: 2.31 µM; IC50 [27]: 9.03 µM; IC50 [28]: 2.08 µM; IC50 [29]: 1.49 µM; IC50 [30]: 0.142 µM; IC50 [31]: 23 µM; IC50 [32]: 8.9 µM
2 | 0.053 µM | 0.037 µM | ≥ 100 µM | 0.274 µM | 0.057 µM | 0.125 µM | 0.057 µM | 0.116 µM | 0.681 µM | 0.061 µM | 0.829 µM | 1.25 µM | 0.171 µM | 0.328 µM | 0.047 µM | 0.029 µM | CN(C)CCOc1ccc(Nc2ncc3c(n2)N(C2CCCC2)C(=O)[C@]2(CCNC2=O)C3)cc1 [Example D179, (S)-8-cyclopentyl-2-((4-(2-(dimethylamino)ethoxy)phenyl)amino)-5,8-dihydro-7H-spiro[pyrido[2,3-d]pyrimidine-6,3′-pyrrolidine]-2′,7-dione] | 0.272 µM | 0.144 µM | 0.268 µM | 0.037 µM | IC50 [21]: 0.355 µM; IC50 [22]: 0.562 µM; IC50 [23]: ≤ 0.01 µM; IC50 [24]: 0.102 µM; IC50 [25]: 0.021 µM; IC50 [26]: 0.252 µM; IC50 [27]: 0.409 µM; IC50 [28]: 0.244 µM; IC50 [29]: 0.143 µM; IC50 [30]: 0.447 µM; IC50 [31]: ≥ 100 µM; IC50 [32]: 0.353 µM
3 | 4.86 µM | 25.4 µM | ≥ 100 µM | 35.3 µM | 29.8 µM | 81.1 µM | 7.68 µM | 2.87 µM | 72.9 µM | 0.254 µM | 97.4 µM | 48.7 µM | 78.9 µM | 13.8 µM | 30.6 µM | 26.3 µM | CC(C)N1CCN(c2ccc(Nc3ncc4c(n3)N(C3CCCC3)C(=O)[C@]3(CCNC3=O)C4)nc2)CC1 [Example D154, (S)-8-cyclopentyl-2-((5-(4-isopropylpiperazin-1-yl)pyridin-2-yl)amino)-5,8-dihydro-7H-spiro[pyrido[2,3-d]pyrimidine-6,3′-pyrrolidine]-2′,7-dione] | 81.3 µM | 5.43 µM | 21.4 µM | 8.14 µM | IC50 [21]: 84.4 µM; IC50 [22]: 29.9 µM; IC50 [23]: ≤ 0.01 µM; IC50 [24]: 16 µM; IC50 [25]: 1.42 µM; IC50 [26]: 19.6 µM; IC50 [27]: ≥ 100 µM; IC50 [28]: 34.6 µM; IC50 [29]: 17.6 µM; IC50 [30]: 9.7 µM; IC50 [31]: ≥ 100 µM; IC50 [32]: 37.3 µM
4 | 2.45 µM | 21.1 µM | 75.5 µM | 63.4 µM | 32 µM | 67.9 µM | 2 µM | 12.1 µM | 68.2 µM | 0.769 µM | 46.2 µM | 78.6 µM | 67.8 µM | 31.9 µM | 19.2 µM | 16.6 µM | CN(C)[C@H]1CCN(c2ccc(Nc3ncc4c(n3)N(C3CCCC3)C(=O)[C@]3(CCNC3=O)C4)nc2)C1 [Example D178, (S)-8-cyclopentyl-2-((5-((S)-3-(dimethylamino)pyrrolidin-1-yl)pyridin-2-yl)amino)-5,8-dihydro-7H-spiro[pyrido[2,3-d]pyrimidine-6,3′-pyrrolidine]-2′,7-dione] | 74.4 µM | 11.3 µM | 24.6 µM | 5.31 µM | IC50 [21]: 75.7 µM; IC50 [22]: 31.8 µM; IC50 [23]: ≤ 0.01 µM; IC50 [24]: 18.3 µM; IC50 [25]: 0.447 µM; IC50 [26]: 16.6 µM; IC50 [27]: 88.2 µM; IC50 [28]: 22.6 µM; IC50 [29]: 34.3 µM; IC50 [30]: 37 µM; IC50 [31]: ≥ 100 µM; IC50 [32]: 30.1 µM
